In patent US20250101003A1, “SPIROCYCLIC CAV2.3 ANTAGONISTS” (LARIO THERAPEUTICS LIMITED, priority 2021, published 2025):

Biological target: Cav2.3 (Homo sapiens, UniProt Q15878)
Assay: Human Cav2.3 channel calcium-influx assay
Format: cell-based
Details: HEK-293 T-Rex/Kir2.1/Cav2.3e-β4-α2δ1 cells, Fluo8 fluorescence, without pluronic acid; read-out: Cav2.3 (pIC50) (converted)
Procedure: HEK-293 T-Rex cells were transfected with pcDNA3.1-Kir2.1 to generate a stable cell line. After antibiotic selection, the obtained stable pools were analysed using FLIPR^TETRA (membrane potential assay), and a limiting dilution was performed and a HEK-293 T-Rex/Kir2.1 clone was selected. The clone was transfected with pcDNA3.1-Cav2.3e and pBud-Cav-β4-α2δ1 to generate a stable cell line where the Cav2.3e expression is inducible. After antibiotic selection, functional clone pool analysis and two successive limiting dilutions, the final clone underwent a qPCR analysis and a biophysical and pharmacological validation using patch-clamp.
A compound plate, containing 10 test compounds in eight-points dose response with n=4, was prepared. Test compounds dose response curves were prepared in automated fashion in 100% DMSO at CyBio Felix and starting from a stock solution in 100% DMSO; a defined volume was serially moved into destination wells pre-filled with the desired DMSO volume; stock solution concentration volumes were dependent on the final compounds concentrations to be tested and the final DMSO content used in the assay. For the assay test compounds dose response curves ranged from 30 μM and half log dilution with 0.3% final DMSO. In order to obtain the 8-points dose response curve all the concentrations were created by starting from a 10 mM DMSO stock solution and then moving 9.5 μL into a destination well pre-filled with 20.5 μL of 100% DMSO and repeating this step seven times. This initial step was done into 96 MTP plates, 10 compounds/plate. One 384 MTP was then reformatted to contain all the 10 compounds at 8 concentrations, quadruplicate data points. This so obtained 384 MTP compound plate served as source plate in a “mother to child” process with a CyBi®-Well dispenser in which 0.7 μL of compounds were moved into a destination plate pre-filled with 57.6 μL of Tyrode's buffer 0 mM K+, thus obtaining 4× concentrated compounds solution. In columns 1-2 and 23-24 the control wells were added. Both “source” compound plate and “destination” compound plate were barcoded and a relationship between the two plates was thus generated.
The day before the experiment, cells were detached by gentle wash with DPBS, followed by 5 min incubation at 37° C. with Trypsin solution. Detached cells were diluted with OptiMEM+Doxycycline at 0.2 μg/mL, counted and plated in Poly-D-Lysine coated black/clear bottom (15.000 c/well in 20 μl/well) by the use of a MATRIX WellMate dispenser. Plates were placed into a humidified incubator at 37° C. with 5% CO2 until the experimental day. 24 h after seeding 10 μL/well of 1.5× Fluo8 NW dye solution prepared in Tyrode's buffer 0 mM K^+ were added on top of the seeding medium. Cell plates were incubated for 40-60 min at RT in the dark. We then Injected off-line 10 μL/well of test compounds and controls 4× concentrated in Tyrode's Buffer 0 mM K+ with the CyBi®-Well instrument. Cell plates were incubated 3 minutes at RT. Finally, we injected 20 μL/well of 3× concentrated activator solution (K20-Na130-Ca2 buffer: 20 mM KCl, 130 mM NaCl, 2 mM CaCl2, 10 mM HEPES, 10 mM Glucose, final concentrations, prepared starting from “KO-Na150-Ca2” and “K150-Na0-Ca2” buffers) at FDSS7000EX instrument and read emitted fluorescence for 130 seconds.
Data analysis was performed with Genedata Screener® software and reported compounds activity as % effect in relation to the normalization standards. The Kinetic Response Value (KRV) is calculated as follows:
KRV=Maximal fluorescence recorded from second 5 to second 130 minus baseline fluorescence, computed as average from second 1 to second 2, of the kinetic trace. The KRV was normalized versus Neutral Controls and Inhibitor Controls in order to obtain the Activity[%] for each well. […] Therefore, the compound activity values were scaled (based on the two references) to a common range (two-point normalization). […]

Sequence of Cav2.3 (Q15878 1-747 limits assumed): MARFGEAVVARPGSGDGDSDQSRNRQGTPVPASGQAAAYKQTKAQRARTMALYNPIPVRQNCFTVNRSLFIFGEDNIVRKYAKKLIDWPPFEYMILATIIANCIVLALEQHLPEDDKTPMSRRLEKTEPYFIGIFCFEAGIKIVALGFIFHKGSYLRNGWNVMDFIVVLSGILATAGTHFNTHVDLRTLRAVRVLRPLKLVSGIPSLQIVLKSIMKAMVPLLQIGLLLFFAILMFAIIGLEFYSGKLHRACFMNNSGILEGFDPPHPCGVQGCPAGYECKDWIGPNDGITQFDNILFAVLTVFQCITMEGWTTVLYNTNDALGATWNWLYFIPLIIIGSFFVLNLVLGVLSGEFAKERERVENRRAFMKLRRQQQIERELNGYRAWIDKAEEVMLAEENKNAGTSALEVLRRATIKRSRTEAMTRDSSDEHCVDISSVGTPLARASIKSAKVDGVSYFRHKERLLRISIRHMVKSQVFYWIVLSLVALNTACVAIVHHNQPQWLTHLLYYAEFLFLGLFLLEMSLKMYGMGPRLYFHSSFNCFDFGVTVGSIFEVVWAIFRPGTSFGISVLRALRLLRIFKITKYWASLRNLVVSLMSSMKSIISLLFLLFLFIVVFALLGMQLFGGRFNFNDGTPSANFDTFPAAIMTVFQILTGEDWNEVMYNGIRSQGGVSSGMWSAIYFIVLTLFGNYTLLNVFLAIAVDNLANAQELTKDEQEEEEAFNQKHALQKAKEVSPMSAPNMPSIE
Sequence of Cav2.3 (Q15878 1126-2313 limits assumed): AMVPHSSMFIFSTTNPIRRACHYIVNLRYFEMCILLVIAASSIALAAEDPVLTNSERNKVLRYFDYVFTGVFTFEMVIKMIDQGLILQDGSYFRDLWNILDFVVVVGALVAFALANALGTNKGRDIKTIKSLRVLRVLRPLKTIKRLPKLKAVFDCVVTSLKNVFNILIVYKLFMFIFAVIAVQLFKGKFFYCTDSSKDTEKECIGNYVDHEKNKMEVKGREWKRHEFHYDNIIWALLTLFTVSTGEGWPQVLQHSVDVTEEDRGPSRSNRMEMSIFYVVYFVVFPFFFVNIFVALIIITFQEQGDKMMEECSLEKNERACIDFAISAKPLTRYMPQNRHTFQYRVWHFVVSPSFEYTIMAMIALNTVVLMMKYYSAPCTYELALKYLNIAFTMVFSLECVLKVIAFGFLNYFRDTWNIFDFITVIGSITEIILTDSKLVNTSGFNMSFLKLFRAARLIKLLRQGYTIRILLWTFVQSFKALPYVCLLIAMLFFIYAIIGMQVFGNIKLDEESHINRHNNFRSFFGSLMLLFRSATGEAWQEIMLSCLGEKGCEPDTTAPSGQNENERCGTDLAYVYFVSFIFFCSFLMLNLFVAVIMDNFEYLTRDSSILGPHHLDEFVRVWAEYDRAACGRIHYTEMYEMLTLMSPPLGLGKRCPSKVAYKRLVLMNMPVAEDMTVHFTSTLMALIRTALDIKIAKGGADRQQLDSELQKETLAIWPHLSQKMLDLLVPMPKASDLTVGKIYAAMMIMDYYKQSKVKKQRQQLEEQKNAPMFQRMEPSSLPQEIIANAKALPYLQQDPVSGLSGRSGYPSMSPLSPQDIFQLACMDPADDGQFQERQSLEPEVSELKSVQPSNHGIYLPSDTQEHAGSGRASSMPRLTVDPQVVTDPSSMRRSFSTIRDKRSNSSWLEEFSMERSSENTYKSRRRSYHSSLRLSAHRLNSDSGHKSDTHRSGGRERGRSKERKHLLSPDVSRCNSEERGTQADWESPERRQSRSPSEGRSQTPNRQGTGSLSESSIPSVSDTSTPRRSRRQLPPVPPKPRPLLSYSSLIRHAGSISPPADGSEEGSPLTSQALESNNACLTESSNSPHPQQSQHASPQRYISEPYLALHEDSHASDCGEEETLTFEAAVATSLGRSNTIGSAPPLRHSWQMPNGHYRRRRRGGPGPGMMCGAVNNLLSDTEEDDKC

SMILES | IC50 [µM]
CC1CC2(CCC2)CN1S(=O)(=O)c1ccc2ccccc2n1 (centres unmarked) [Example 79, 2-((7-Methyl-6-azaspiro[3.4]octan-6-yl)sulfonyl)quinoline] | 6.31
CCc1nc2cc(S(=O)(=O)N3CC4(CCC4)CC3CC)ccc2o1 (centres unmarked) [Example 51, 2-Ethyl-5-((7-ethyl-6-azaspiro[3.4]octan-6-yl)sulfonyl)benzo[d]oxazole] | 2.75
CC(=O)Nc1nnc(S(=O)(=O)N2CC3(CCC3)CC2C)s1 (centres unmarked) [Example 40, N-(5-((7-methyl-6-azaspiro[3.4]octan-6-yl)sulfonyl)-1,3,4-thiadiazol-2-yl)acetamide] | 8.32
CC1CC2(CCC2)CN1S(=O)(=O)c1ccc2c(c1)CN(c1ccccc1)CC2 (centres unmarked) [Example 29, 7-((7-Methyl-6-azaspiro[3.4]octan-6-yl)sulfonyl)-2-phenyl-1,2,3,4-tetrahydroisoquinoline] | 4.79
Cc1ccc(S(=O)(=O)N2CC3(CCC3)CC2C)o1 (centres unmarked) [Example 53, 7-Methyl-6-((5-methylfuran-2-yl)sulfonyl)-6-azaspiro[3.4]octane] | 4.9
CCC1CC2(CCCC2)CN1S(=O)(=O)c1cccs1 (single isomer, unassigned) [Example 98, 3-Ethyl-2-(thiophen-2-ylsulfonyl)-2-azaspiro[4.4]nonane] | 14.5
CC1CC2(CCC2)CN1S(=O)(=O)c1cccc2c1OC(F)(F)O2 (centres unmarked) [Example 41, 6-((2,2-Difluorobenzo[d][1,3]dioxol-4-yl)sulfonyl)-7-methyl-6-azaspiro[3.4]octane] | 8.32
CC1CC2(CCC2)CN1S(=O)(=O)c1ccc2c(c1)OCCO2 (single isomer, unassigned) [Example 7, 6-((2,3-dihydrobenzo[b][1,4]dioxin-6-yl)sulfonyl)-7-methyl-6-azaspiro[3.4]octane] | 2.19
Cc1ccc(S(=O)(=O)N2CC3(CCC3)CC2C)s1 (single isomer, unassigned) [Example 78, 7-methyl-6-((5-methylthiophen-2-yl)sulfonyl)-6-azaspiro[3.4]octane] | 3.63
CCOc1cc(S(=O)(=O)N2CC3(CCC3)CC2C)ccn1 (centres unmarked) [Example 88, 6-((2-Ethoxypyridin-4-yl)sulfonyl)-7-methyl-6-azaspiro[3.4]octane] | 2.51
CCc1ncsc1S(=O)(=O)N1CC2(CCC2)CC1C (centres unmarked) [Example 64, 4-Ethyl-5-((7-methyl-6-azaspiro[3.4]octan-6-yl)sulfonyl)thiazole] | 3.72
CC1CC2(CCC2)CN1S(=O)(=O)c1cncs1 (centres unmarked) [Example 109, 5-((7-Methyl-6-azaspiro[3.4]octan-6-yl)sulfonyl)thiazole] | 3.98
Cc1ccnc2cc(S(=O)(=O)N3CC4(CCC4)CC3C)ccc12 (centres unmarked) [Example 80, 4-Methyl-7-((7-methyl-6-azaspiro[3.4]octan-6-yl)sulfonyl)quinoline] | 2.82
Cc1nc(C)c(S(=O)(=O)N2CC3(CCC3)CC2C)s1 (single isomer, unassigned) [Example 107, 2,4-dimethyl-5-((7-methyl-6-azaspiro[3.4]octan-6-yl)sulfonyl)thiazole] | 6.76
CC1CC2(CCC2)CN1S(=O)(=O)c1ccco1 (centres unmarked) [Example 36, 6-(Furan-2-ylsulfonyl)-7-methyl-6-azaspiro[3.4]octane] | 5.25
Cc1nc(C)c(S(=O)(=O)N2CC3(CCC3)CC2C)s1 (centres unmarked) [Example 105, 2,4-Dimethyl-5-((7-methyl-6-azaspiro[3.4]octan-6-yl)sulfonyl)thiazole] | 4.57
CC1CC2(CCC2)CN1S(=O)(=O)c1ccc(Cl)s1 (centres unmarked) [Example 108, 6-((5-Chlorothiophen-2-yl)sulfonyl)-7-methyl-6-azaspiro[3.4]octane] | 11.5
CC1CC2(CCC2)CN1S(=O)(=O)c1ncccn1 (centres unmarked) [Example 14, 7-Methyl-6-(pyrimidin-2-ylsulfonyl)-6-azaspiro[3.4]octane] | 46.8
O=S(=O)(c1cccs1)N1CC2(CCCC2)CC1C1CCCCC1 (centres unmarked) [Example 75, 3-Cyclohexyl-2-(thiophen-2-ylsulfonyl)-2-azaspiro[4.4]nonane] | 37.2
CC1CC2(CCC2)CN1S(=O)(=O)c1cccs1 (single isomer, unassigned) [Example 103, 7-Methyl-6-(thiophen-2-ylsulfonyl)-6-azaspiro[3.4]octane] | 8.32
COc1cc(S(=O)(=O)N2CC3(CCC3)CC2C)ccn1 (centres unmarked) [Example 86, 6-((2-Methoxypyridin-4-yl)sulfonyl)-7-methyl-6-azaspiro[3.4]octane] | 1.35
CC1CC2(CCC2)CN1S(=O)(=O)c1cc2ccccc2o1 (centres unmarked) [Example 66, 6-(Benzofuran-2-ylsulfonyl)-7-methyl-6-azaspiro[3.4]octane] | 9.12
CCC1CC2(CCCC2)CN1S(=O)(=O)c1cccs1 (centres unmarked) [Example 97, 3-Ethyl-2-(thiophen-2-ylsulfonyl)-2-azaspiro[4.4]nonane] | 2.51
CC1CC2(CCC2)CN1S(=O)(=O)c1ccc2ccoc2c1 (single isomer, unassigned) [Example 17, 6-(benzofuran-6-ylsulfonyl)-7-methyl-6-azaspiro[3.4]octane] | 1.32
CC1CC2(CCC2)CN1S(=O)(=O)c1ccc2c(c1)CN(C(=O)C(F)(F)F)CC2 (single isomer, unassigned) [Example 20, 2,2,2-trifluoro-1-(7-((7-methyl-6-azaspiro[3.4]octan-6-yl)sulfonyl)-3,4-dihydroisoquinolin-2(1H)-yl)ethan-1-one] | 4.27
CC1CC2(CCC2)CN1S(=O)(=O)c1ccco1 (single isomer, unassigned) [Example 37, 6-(Furan-2-ylsulfonyl)-7-methyl-6-azaspiro[3.4]octane] | 7.94
CC(C)C(=O)N1Cc2ccc(S(=O)(=O)N3CC4(CCC4)CC3C)cc2C1 (centres unmarked) [Example 52, 2-methyl-1-(5-((7-methyl-6-azaspiro[3.4]octan-6-yl)sulfonyl)isoindolin-2-yl)propan-1-one] | 2
CC1CC2(CCC2)CN1S(=O)(=O)c1ccc2c(c1)COC2 (centres unmarked) [Example 65, 6-((1,3-Dihydroisobenzofuran-5-yl)sulfonyl)-7-methyl-6-azaspiro[3.4]octane] | 3.98
CC1CC2(CCC2)CN1S(=O)(=O)c1ccc2c(c1)CN(C(=O)C(F)(F)F)CC2 (single isomer, unassigned) [Example 19, 2,2,2-Trifluoro-1-(7-((7-methyl-6-azaspiro[3.4]octan-6-yl)sulfonyl)-3,4-dihydroisoquinolin-2(1H)-yl)ethan-1-one] | 1.78
